Results on two molecules are retold here after patent publication US6428971B1, “Teichoic acid enzymes and assays” (priority 1996, dated 2002).

Data set [1] deals with T1, TAP (Bacillus subtilis, UniProt P13485).
T1 construct: corresponds to a 2163 bp open reading frame beginning with ATG at bp 100 and ending with TAA at bp 2263; made in house; host or cells: E. coli DH10B / pBSRODC1 (pTrc99A vector); membrane preparation, 2M NaCl extract, High Q fraction
Nature of the data set: TAP enzyme assay (acid precipitation of radioactive lipoteichoic acid). Format: biochemical, B. subtilis. The conditions noted are these: lipoteichoic acid from either B. subtilis, S. aureus, or E. faecalis. The protocol: (§1) The enzymatic activity of TAP was assayed using CDP[^3H]glycerol as the glycerolphosphate donor and B. subtilis lipoteichoic acid as the acceptor. If active, the recombinant TAP enzyme should lengthen lipoteichoic acid with radioactive glycerolphosphate monomers, producing acid precipitable radioactivity. […] Extraction of TAP from the E. coli membrane with 2 M NaCl produced an active TAP preparation that could be separated from the cell membrane by ultracentrifugation.
(§2) The method of Burger and Glaser was generally followed. Burger M M, Glaser L. “The synthesis of teichoic acids” J. Biol. Chem. (1964) vol. 239, pp. 3168-3177, incorporated by reference. A typical assay contained 1-100 μl of enzyme, 10 μl of lipoteichoic acid (1 mg/ml B. subtilis lipoteichoic acid [Sigma] in water), 25 μl of CDP[^3H]glycerol (10 mM CDPglycerol Specific Activity 8.8 μCi/μMole), and enough Buffer A to bring the total volume to 250 μl. The reaction was incubated at 37° C. for one hour, mixed with 80 μl of 3N perchloric acid, and placed on ice for 5 min. The acid treated sample was spotted on a GF/C filter and washed with 4×5 ml of 0.15 N perchloric acid before liquid scintillation counting. Control reactions lacking either lipoteichoic acid or CDP[^3H]glycerol were included as negative controls.
(§3) The method of Burger and Glaser was generally followed. […]

The target of data set [2] is T2, TAP (Bacillus subtilis, UniProt P13485, A616V).
T2 construct: corresponds to a 2163 bp open reading frame beginning with ATG at bp 100 and ending with TAA at bp 2263; made in house; host or cells: E. coli DH10B / pBSRODC1 (pTrc99A vector); membrane preparation, 2M NaCl extract, High Q fraction
The description is as above. The data set is classed as biochemical, B. subtilis. The conditions noted are these: alanine ester removed in 0.1M Tris-HCl pH 8.0, 24 hr, 37° C. The protocol: as §1, §2, §3

Data set [3] in a line: Storage stability of the TAP enzyme. As to conditions: stored in ice. Format: physicochemical.

T1 sequence (P13485 26-746 A616V): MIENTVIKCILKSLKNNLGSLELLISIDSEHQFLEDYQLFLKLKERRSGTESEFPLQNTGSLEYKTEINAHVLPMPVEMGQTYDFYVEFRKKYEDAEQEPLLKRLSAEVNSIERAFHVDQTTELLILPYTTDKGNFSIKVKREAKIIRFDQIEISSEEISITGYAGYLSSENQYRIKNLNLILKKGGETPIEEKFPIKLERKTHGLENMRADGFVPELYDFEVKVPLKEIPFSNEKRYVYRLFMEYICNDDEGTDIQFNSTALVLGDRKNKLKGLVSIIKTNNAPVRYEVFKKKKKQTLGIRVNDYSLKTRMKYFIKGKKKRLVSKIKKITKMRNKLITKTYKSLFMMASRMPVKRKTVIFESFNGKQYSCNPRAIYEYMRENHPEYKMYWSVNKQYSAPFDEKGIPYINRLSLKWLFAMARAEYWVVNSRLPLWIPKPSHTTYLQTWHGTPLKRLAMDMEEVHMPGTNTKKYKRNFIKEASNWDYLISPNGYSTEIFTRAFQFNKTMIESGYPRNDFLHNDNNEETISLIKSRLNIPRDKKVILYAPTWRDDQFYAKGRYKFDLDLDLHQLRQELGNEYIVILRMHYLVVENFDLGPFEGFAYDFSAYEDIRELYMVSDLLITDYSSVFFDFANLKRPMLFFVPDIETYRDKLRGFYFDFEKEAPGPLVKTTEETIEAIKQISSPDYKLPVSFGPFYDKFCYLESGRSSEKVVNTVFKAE
T2 sequence (P13485 26-746 A616V): as above

In the case of lipoteichoic acid, the “acceptor of CDP[3H]glycerol (substrate for TAP)” value at TAP [1] is listed as “could serve as an acceptor”. Besides, the “effect of alanine removal from lipoteichoic acid on activity of the recombinant TAP enzyme” value on TAP [2] is “improved activity”.

B1: TAP: recombinant B. subtilis rodC (tagF) gene product overexpressed in E. coli DH10B/pBSRODC1, SEQ ID NO 2 with alanine to valine change (protein)
chain: MSLVVDTNKRKQKGKSFYTEEQKKVMIENTVIKCILKSLKNNLGSLELLISIDSEHQFLEDYQLFLKLKERRSGTESEFPLQNTGSLEYKTEINAHVLPMPVEMGQTYDFYVEFRKKYEDAEQEPLLKRLSAEVNSIERAFHVDQTTELLILPYTTDKGNFSIKVKREAKIIRFDQIEISSEEISITGYAGYLSSENQYRIKNLNLILKKGGETPIEEKFPIKLERKTHGLENMRADGFVPELYDFEVKVPLKEIPFSNEKRYVYRLFMEYICNDDEGTDIQFNSTALVLGDRKNKLKGLVSIIKTNNAPVRYEVFKKKKKQTLGIRVNDYSLKTRMKYFIKGKKKRLVSKIKKITKMRNKLITKTYKSLFMMASRMPVKRKTVIFESFNGKQYSCNPRAIYEYMRENHPEYKMYWSVNKQYSAPFDEKGIPYINRLSLKWLFAMARAEYWVVNSRLPLWIPKPSHTTYLQTWHGTPLKRLAMDMEEVHMPGTNTKKYKRNFIKEASNWDYLISPNGYSTEIFTRAFQFNKTMIESGYPRNDFLHNDNNEETISLIKSRLNIPRDKKVILYAPTWRDDQFYAKGRYKFDLDLDLHQLRQELGNEYIVILRMHYLVAENFDLGPFEGFAYDFSAYEDIRELYMVSDLLITDYSSVFFDFANLKRPMLFFVPDIETYRDKLRGFYFDFEKEAPGPLVKTTEETIEAIKQISSPDYKLPVSFGPFYDKFCYLESGRSSEKVVNTVFKAE
Take B1: the “stability of the enzyme on storage” value in data set [3] is reported as “stable for two weeks”.
